Laboratory results reported in US7732563B2, “Cloning, sequencing and expression of a gene encoding an eukaryotic amino acid racemase, and diagnostic, therapeutic, and vaccination applications of parasite and viral mitogens” (priority 1999, dated 2010).

Key:
total spleen cells = test: In vitro proliferation assay of splenocytes (3H-thymidine uptake); type: cell-based, mouse; settings: for 3H-thymidine uptake: after 48 h, ConA 10 μg/ml, LPS 5 μg/ml, BALB/c splenocytes 5×10^4 cells/well; for mitogenic activity of rTcPA45 after pre-incubation with inhibitor of proline racemase: 50 μg/ml rTcPA45 pre-incubated with 1 mM inhibitor; for mitogenic activity of rTcPA45 with cultures supplemented with increasing amounts of substrate: 3 mM to 50 mM substrate, dose-dependent, competitive inhibition; for cell proliferation of lymphocytes with substrate alone: 50 mM alone
Protocol: Briefly, freshly recovered splenocytes from 8 week old male Balb/c mice seeded at a concentration of 5×10^4 cells/well were incubated for 24, 48 and 72 h in 5% FCS RPMI-1640 medium. A 16 h ^3H-thymidine pulse at 1 μCi/well was performed before harvesting. ^3H-Thymidine uptake was determined in a beta-plate liquid scintillation counter (LKB-Wallac). All points were done in triplicate and the corresponding standard deviation calculated. For comparison, ^3H-thymidine uptake after 48 h in the presence of ConA (10 μg/ml) and LPS (5 μg/ml) was 32000 c.p.m. and 3500 c.p.m., respectively. T-cell depletion was performed by incubating freshly recovered spleen cells for 30 min at 37° C. in the presence of anti-Thy 1.2 monoclonal antibody (Cedarlane) and rabbit complement (Cedarlane). In order to rule out a possible mitogenic effect due to LPS contamination in samples, proliferation assays were also performed on freshly recovered splenocytes from the LPS non-responder mouse strain C3H/Hej. Same levels of proliferation were verified. Balb/c mice were purchased from Charles River, France. C3H/Hej mice were maintained in our animal facilities.
In vitro proliferation is accomplished using freshly recovered splenocytes from BALB/c mice seeded at a density of 5×10^4 cells/well and incubated for 24, 48 and 72 h with increasing concentrations of total parasite supernatants or recombinant TcPa45 protein or other mitogen (0.07-200 μg/ml) with 0.5 μg/ml of the HPLC fractions, or with the conventionally used mitogens concanavalin A (10 μg/ml) and lipopolysaccharide (5 μg/ml) in 5% FCS in RPMI-1640 complete medium. T-cell depletion is accomplished by incubating freshly recovered spleen cells for 30 min. at 37° C. in the presence of monoclonal antibodies against Thy 1.2 and rabbit complement (Cedarlane, Le Perray en Yvelines, France). Analysis of proliferative activity of total splenocytes (5×10^4 cells/well) in the presence of 50 μg/ml enzymatically active rTcPA45 or other mitogen is also compared with the proliferation obtained using the same amounts of rTcPA45 protein or other mitogen lacking racemase activity (by heating for 10 min. at […] or by long term storage at 4° C.). Inhibition of proliferation is obtained by adding to the splenocyte cultures 50 μg/ml rTcPA45 or other mitogen pre-incubated for 10 min. at 37° C. with 1 mM inhibitor, either specific (pyrrole-2-carboxylic acid) or nonspecific (iodoacetamide or iodoacetate). Competitive assays of proliferative activity by 50 μg/ml rtcPA45 or other mitogen are done by adding increasing concentrations of specific substrates i.e., proline racemase substrates (L- or D-proline) for the mitogen rTcPA45 ranging from 3 mM to 50 mM. Controls include the incubation of splenocytes (5×10^4 cells/well) with substrate alone, i.e., 50 mM L- or D-proline in RPMI medium alone for prline racemase. Cultures are collected after a 16-hour pulse or 1 μCi/well ^3H-thymidine uptake was determined in a beta-plate liquid scintillation counter (LKB-Wallac, Orsay, France). All data points are obtained in triplicate and the corresponding standard deviation is calculated.
5×10^5 naive spleen cells/well (96 well plate) were stimulated in vitro with different doses of rTcPA45 (ranging in FIG. 4b from 0.8 to 200 μg/ml final) for 24, 48 and 72 h, at 37° C., 5% CO2. Cultures were pulsed with ^3H-Thymidine (1 μCi/well) for 16-18 h before harvesting. ^3H-thymidine incorporation was obtained after counting using a beta-plate. Results present arithmetic means of c.p.m. (counts/minute) from 6 wells/dose of rTcPA45 or wells containing medium alone (+/−SD of the means). (FIG. 4b)

rTcPA45 proline racemase = target: T1, rTcPA45 proline racemase (Trypanosoma cruzi, UniProt Q4DA80); type: biochemical; settings: 80 mM L-proline; inhibitors 6 mM to 100 mM
T1 construct: made in house; host or cells: E. coli (pET28b(+))
Protocol: To investigate the genomic organization and transcription of the Tc45 gene, Southern and Northern blot analyses were done. FIG. 4 depicts the results of characterization of rTcPA45 activities. FIG. 4, part a, is an 8% SDS-PAGE gel of rTcPA45 (Coomasie blue staining). Part b depicts the proliferative activity of total splenocytes (5×10^4 cells/well) in the presence of increasing concentrations of rTcPA45 (μg/ml). […] Reaction conditions were: 0.2 M Na-acetate/25 mM β-mercaptoethanol buffer, pH6, rTcPA45 (3 μg/ml), 30 min incubation at 37° C. in 500 μl. The reaction was stopped by incubating for 10 min at 80° C. […] Reactions were carried out for 30 min at 37° C. and stopped for 5 min at 80° C. All reagents and inhibitors were purchased from Sigma. The shift in optical rotation was measured in a Polarimeter 241 MC (Perkin Elmer).
3 μg of rTcPA45 was diluted in 500 μl of buffer (0.2M NaOAc, […] β-mercaptoethanol, pH6.0) containing different concentrations of the substrate (10-80 mM or L- or D-proline). (See FIG. 4c.) The reaction was incubated for 30-60 minutes at 37° C. in a water bath, followed by heat inactivation of the enzyme for 10 minutes at 80° C. Each sample is diluted to 1.5 ml with water and the mixture submitted to measurement of optical rotation using a polarimeter, at 365 nm. A sample without enzyme is used as a control. For optimal pH determination, buffer systems with NaOAc, phosphate, and Tris were used with pH ranging from 4.0-8.2. Curve of temperature was performed between 27° C. to 47° C.
The percent of racemization of different concentrations of L-proline, D-proline, L-hydroxy-proline and D-hydroxy-proline substrates was calculated by incubating a 500-μl mixture of 3 μg TcPA45 and 10-80 mM substrate in 0.2 M sodium acetate and 25 mM β-mercaptoethanol, pH 6, for 30 min at 37° C. The reaction was stopped by incubation for 10 min at 80° C. Water (1 ml) was then added, and the optical rotation was measured in polarimeter 241 MC (Perkin Elmer, Montignyle Bretonneux, France) at a wavelength of 365 nm, in a cell with a path length of 10 cm. The percent inhibition of racemization of 80 mM L-proline was determined in the presence of different concentrations of several specific and nonspecific inhibitors ranging in concentration from 6 mM to 100 mM. The percent racemization of 80 mM L-proline as a function of pH was determined using 0.2 M sodium acetate, potassium phosphate and Tris-HCl buffers containing 25 mM β-mercaptoethanol; reactions were incubated for 30 min at 37° C. as described above. All reagents and inhibitors were purchased from Sigma.

T1 sequence (Q4DA80 30-423): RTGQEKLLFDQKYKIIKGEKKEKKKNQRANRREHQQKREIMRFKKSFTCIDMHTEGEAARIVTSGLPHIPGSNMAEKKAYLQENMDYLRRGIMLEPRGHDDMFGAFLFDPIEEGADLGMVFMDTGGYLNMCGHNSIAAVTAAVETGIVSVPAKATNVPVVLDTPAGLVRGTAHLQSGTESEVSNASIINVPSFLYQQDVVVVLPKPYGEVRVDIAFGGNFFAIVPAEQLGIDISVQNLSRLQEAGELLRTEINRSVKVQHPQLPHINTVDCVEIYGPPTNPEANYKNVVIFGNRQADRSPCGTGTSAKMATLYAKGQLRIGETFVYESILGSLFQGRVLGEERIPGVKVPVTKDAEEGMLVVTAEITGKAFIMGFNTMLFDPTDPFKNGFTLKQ

For lipopolysaccharide [LPS], which 3H-thymidine uptake (total spleen cells) is on record?
The 3H-thymidine uptake was 3500 c.p.m.

What about the 3H-thymidine uptake (total spleen cells; listed as lipopolysaccharide) of the same compound?
Its 3H-thymidine uptake is 3,500 c.p.m.

Which results are given for `O=C(O)CI` [iodoacetate, reference compound]?
mitogenic activity of rTcPA45 after pre-incubation with inhibitor of proline racemase (total spleen cells): abolished; inhibition of rTcPA45 enzymatic (racemase) activity (rTcPA45 proline racemase): inhibited to different extents

For `O=C(O)c1ccc[nH]1` [pyrrole-2-carboxylic acid, reference compound], which “mitogenic activity of rTcPA45 after pre-incubation with inhibitor of proline racemase” value (total spleen cells) is on record?
Its value is “abolished”.

What about the “inhibition of rTcPA45 enzymatic (racemase) activity” value (“inhibition of rTcPA45 enzymatic” for short) (rTcPA45 proline racemase) of the same compound?
Its value is “inhibited to different extents”.

What does the source list for concanavalin A [ConA]?
3H-thymidine uptake (total spleen cells): 32000 c.p.m.; 3H-thymidine uptake (total spleen cells; listed as concavalin A): 32,000 c.p.m.

For `O=C(O)[C@H]1CCCN1` [D-proline], which “mitogenic activity of rTcPA45 with cultures supplemented with increasing amounts of substrate” value (total spleen cells) is on record?
Its value is “affected considerably”.

What about the “cell proliferation of lymphocytes with substrate alone” value (total spleen cells) of the same compound?
The value was “no cell proliferation”.

`O=C(O)[C@@H]1CCCN1` [L-proline] was tested. Which “mitogenic activity of rTcPA45 with cultures supplemented with increasing amounts of substrate” value (total spleen cells) did it give?
The value was “affected considerably”.

What about the “cell proliferation of lymphocytes with substrate alone” value (total spleen cells) of the same compound?
Its value is “no cell proliferation”.

For `NC(=O)CI` [iodoacetamide, reference compound], which “mitogenic activity of rTcPA45 after pre-incubation with inhibitor of proline racemase” value (total spleen cells) is on record?
The value was “abolished”.

And the “inhibition of rTcPA45 enzymatic” value (rTcPA45 proline racemase)?
Its value is “inhibited to different extents”.

With `O=C(O)/C=C\C(=O)O` [maleic acid, reference compound] as the compound, how does the “inhibition of rTcPA45 enzymatic” value (rTcPA45 proline racemase) read?
The value was “inhibited to different extents”.
